The structures appear in SMILES notation.

Drawing on ChEMBL document CHEMBL1130672, “Evaluation of a structure-based statine cyclic diamino amide encoded combinatorial library against plasmepsin II and cathepsin D” (Bioorg Med Chem Lett, 1998), this text covers IC50 and Ki for 4 compounds.

The target of one experiment is Plasmepsin II (Plasmodium falciparum, UniProt P46925). Description: Inhibitory activity against plasmepsin-2.
The next experiment concerns the target Cathepsin D (Homo sapiens, UniProt P07339). The experiment in a line: Compound was tested for inhibitory activity against cathepsin D.
The next experiment has as its system Plasmodium falciparum. Description: Inhibitory concentration for Plasmodium falciparum culture. Format: functional, organism-based.

Chain of Cathepsin D (P07339 65-162 limits assumed): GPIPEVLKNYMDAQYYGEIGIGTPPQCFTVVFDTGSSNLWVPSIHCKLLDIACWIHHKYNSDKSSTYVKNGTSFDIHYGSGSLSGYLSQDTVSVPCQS
Chain of Cathepsin D (P07339 169-412 limits assumed): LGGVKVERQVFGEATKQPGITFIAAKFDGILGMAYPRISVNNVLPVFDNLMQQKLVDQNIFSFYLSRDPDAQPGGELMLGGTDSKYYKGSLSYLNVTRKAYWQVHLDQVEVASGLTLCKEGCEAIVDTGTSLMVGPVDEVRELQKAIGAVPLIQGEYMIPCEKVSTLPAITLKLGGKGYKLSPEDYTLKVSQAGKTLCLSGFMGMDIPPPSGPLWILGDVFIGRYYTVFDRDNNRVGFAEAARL
Chain of Plasmepsin II (P46925 whole entry): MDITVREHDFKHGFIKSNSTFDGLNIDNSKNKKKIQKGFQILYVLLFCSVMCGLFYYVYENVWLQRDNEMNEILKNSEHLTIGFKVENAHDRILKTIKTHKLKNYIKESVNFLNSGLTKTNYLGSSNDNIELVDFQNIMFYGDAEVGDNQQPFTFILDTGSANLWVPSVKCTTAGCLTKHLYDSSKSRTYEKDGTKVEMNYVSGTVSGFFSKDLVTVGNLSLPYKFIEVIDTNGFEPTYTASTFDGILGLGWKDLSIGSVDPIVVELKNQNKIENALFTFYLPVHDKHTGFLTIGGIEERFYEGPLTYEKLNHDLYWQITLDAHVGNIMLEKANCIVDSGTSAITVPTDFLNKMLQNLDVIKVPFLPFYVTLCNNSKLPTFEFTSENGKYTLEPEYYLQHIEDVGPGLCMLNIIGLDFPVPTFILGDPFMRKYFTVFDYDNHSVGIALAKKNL

In general, IC50 refers to the concentration needed to halve the response being measured. Low values mean greater potency, high ones weaker potency. A word on the Ki: it is a dissociation constant, usually derived from enzyme kinetics or from competition with a known ligand. In the case of `CCCCNC(=O)C[C@H](O)[C@H](Cc1ccccc1)NC(=O)CC1CN(Cc2cc(OC)c(OC)c(OC)c2)CCN1C(=O)c1ccc(OC(C)C)cc1` (some centres undefined), the IC50 on Plasmepsin II was ~40 µM. In addition, the inhibition constant Ki at Cathepsin D came to 5.3 µM.
The compound `CCCCNC(=O)C[C@H](O)[C@H](Cc1ccccc1)NC(=O)CC1CN(Cc2ccc(-c3ccccc3)cc2)CCN1C(=O)CC(CN)c1ccc(Cl)cc1` (some centres undefined) came in with a Ki on Plasmepsin II of 0.49 µM. Further, the half-inhibitory concentration (IC50) in the experiment with Plasmodium falciparum was 3 µM; against Cathepsin D, ~45 µM.
As for `CCCCNC(=O)C[C@H](O)[C@H](Cc1ccccc1)NC(=O)C1CN(C(=O)CCCCC(=O)OCC)CCN1C(=O)CCc1cc(OC)c(OC)c(OC)c1` (some centres undefined), the 50% inhibitory concentration (IC50) against Plasmepsin II was ~100 µM. At Cathepsin D, this compound displayed a Ki of 1.1 µM.
The corresponding values for `CCCCNC(=O)C[C@H](O)[C@H](Cc1ccccc1)NC(=O)C1CN(CCOCCc2ccccc2)CCN1C(=O)CCc1cc(OC)c(OC)c(OC)c1` (some centres undefined) are ~65 µM and 1.8 µM.
